The values that follow come from patent US20080242684A1, “METHODS OF ADMINISTRATION OF ADENOSINE A1 RECEPTOR ANTAGONISTS” (priority 2007, published 2008).

Data set [1] deals with Subjects presenting with New York Heart Association Class II-IV CHF and estimated creatinine clearance between 20 mL/min and 80 mL/min.
Description: The subjects are taking an oral loop diuretic. The subjects can also present with a one of the following: history of seizure, stroke within two years, brain tumor, brain surgery within two years, encephalitis within two years, history of penetrating head trauma, closed head injury with loss of consciousness over 30 minutes within two years, history of alcohol withdrawal seizure, advanced Alzheimer's disease, or advanced multiple sclerosis (“at risk” subjects). The subjects' medical history, physical examination, classification of CHF, vital signs, body weight, CHF signs and symptom scores, Holter monitor recording, chest X-ray, CBC chemistries, creatinine clearance, fluid intake, and urine output are determined on pre-treatment days −2 to −1, days 1 to 3 of the Treatment Period, day 4/early Termination and a follow up contact at day 30. […] On day 1, the composition comprising KW-3902 (or placebo) is administered as a monotherapy. 6 hours after administration of KW-3902, IV loop diuretic is given to all treatment groups as needed. […] Final laboratory data are collected on day 4 or early termination. Follow-up phone contact is conducted on day 30.
In data set [2] the test system is Subjects presenting with congestive heart failure who are refractory to high dose diuretic therapy. Briefly: Example 3: IV KW-3902 in subjects refractory to standard IV diuretic therapy. Format: in vivo, human. Conditions: 20-40 mg KW-3902 IV over 3-5 hours. The protocol:
Changes in urine output are measured hourly. The subjects' creatinine clearance rate is measured every 3 hours. […] A dose of between about 20 mg and about 40 mg, preferably about 30 mg of KW-3902 in injectable form is infused through the IV line over the course of about 3 to about 5 hours, and preferably over the course of 4 hours. The subject receives continued treatment with furosemide. The subject's fluid intake and output, urine volume, serum and urine creatinine levels, electrolytes and cardiac function are monitored.

Data set [3] deals with subject with fluid overload and impaired renal function. Description: Example 5: IV KW-3902 concurrent with diuretic therapy in fluid overload and impaired renal function. Format: in vivo, human. To be noted: 20-40 mg KW-3902 IV over 3-5 hours, concurrent with other diuretic therapy. As to the method:
A subject with fluid overload, as manifested by peripheral edema, dyspnea, and/or other signs or symptoms presents themself to the physician's office or clinic. The subject has been on a therapy regimen that includes oral diuretics and, in addition, to needing a higher dose of diuretics to manage his/her fluid balance, the subject is now showing impaired renal function. […] The subject is administered a dose of about 20 mg to about 40 mg KW-3902 intravenously over about 3 to about 5 hours, preferably over the course of about 4 hours, concurrent with other diuretic therapy. The subject's fluid intake and output, urine volume, serum and urine creatinine levels, electrolytes and cardiac function are monitored.

Data set [4] has as its system hospitalized subject treated with maximum amounts of IV diuretic and still fluid overloaded. Description: Example 4: IV KW-3902 with continued furosemide in a hospitalized subject refractory to IV diuretic. Format: in vivo, human. To be noted: 20-40 mg KW-3902 IV over 3-5 hours. The protocol: A hospitalized subject who has been treated with maximum amounts of IV diuretic and is still symptomatic, fluid overloaded, or whose urine output is less than fluid intake is evaluated for further treatment. A dose of a KW-3902 between about 20 mg and about 40 mg, and preferably about 30 mg injectable form is infused through the IV line over the course of about 3 hours to about 5 hours, and preferably over the course of about 4 hours. […] The subject's fluid intake and output, urine volume, serum and urine creatinine levels, electrolytes and cardiac function are monitored.

Data set [5] concerns subject with fluid overload. Description: Example 7: IV KW-3902 concurrent with diuretic therapy in fluid overload. Format: in vivo, human. To be noted: 20-40 mg KW-3902 IV over 3-5 hours. The protocol:
A subject with fluid overload, as manifested by peripheral edema, dyspnea, and/or other signs or symptoms presents to the physician's office or clinic. The subject has been on a therapy regimen that includes oral diuretics and needs a higher dose of diuretics to manage his/her fluid balance. To delay or prevent the onset of renal impairment and/or to delay the need to use higher dosages of standard diuretics, the subject is administered a dose of about 20 mg to about 40 mg, and preferably a dose of about 30 mg, KW-3902 IV, administered over the course of about 3 to about 5 hours, and preferably over the course of about 4 hours. The subject also receives concurrent with their diuretic therapy. The subject's fluid intake and output, urine volume, serum and urine creatinine levels, electrolytes and cardiac function are monitored.

Structures are written as SMILES.

In the case of `CCCn1c(=O)c2[nH]c(C34CC5CC(CC3C5)C4)nc2n(CCC)c1=O` [KW-3902, 8-(3-noradamantyl)-1,3-dipropylxanthine], the “kidney function as measured by serum creatinine levels compared to the baseline levels” value in data set [1] (20-40 mg (preferably about 30 mg) KW-3902 IV over about 4 hours, days 1-3, effect greater than placebo) is given as “improvement in kidney function”. Moreover, the “seizures throughout the treatment period” value in data set [1] (at risk subjects) is “do not experience seizures”. Moreover, the “diuresis, as measured by urine output” value in data set [1] (combination of KW-3902 and non adenosine-modifying diuretics such as furosemide) was “synergistic beneficial effect on diuresis”. Also, in data set [2] (continued furosemide), the “seizures during the course of treatment” value is given as “do not experience seizures”. In data set [2] (compared to placebo), the creatinine clearance entry was “improvement in creatinine clearance” and the “hourly urine volume over the ensuing 9 hours” value is “increased hourly urine volume”. In addition, in data set [3], the creatinine clearance entry is “improved diuresis and creatinine clearance”; the diuresis result is reported as “improved diuresis”; the “seizures throughout the course of therapy” value is “do no experience seizures”. Also, in data set [4], the diuresis result was “improved diuresis” and the seizures result is reported as “do not experience seizures”. Besides, in data set [5], the diuresis result is “improved diuresis”, the renal function result was “renal function is maintained” and the “seizure throughout the course of treatment” value is “do not experience a seizure”.
